In ChEMBL document CHEMBL4184091, “Microwave-assisted synthesis of novel 5-substituted benzylidene amino-2-butyl benzofuran-3-yl-4-methoxyphenyl methanones as antileishmanial and antioxidant agents” (Bioorg Med Chem Lett, 2018):
Values after ≈ are worked out from the molar mass of the structure shown.

Columns and labels:
Leishmania donovani [1] = test: Antileishmanial activity against promastigote form of Leishmania donovani NHOM/IN/80/DD8 assessed as decrease in cell viability after 72 hrs by MTT assay; assay type: functional, organism-based; conditions: NHOM/IN/80/DD8, 72 h
[2] = Antioxidant activity assessed as DPPH radical scavenging activity after 20 to 30 mins; assay type: functional
Leishmania donovani [3] = test: Potency index, ratio of sodium stibogluconate IC50 to compound IC50 for promastigote form of Leishmania donovani NHOM/IN/80/DD8; assay type: functional

SMILES	IC50 [2]	IC50 (Leishmania donovani [1])	Ratio IC50 (Leishmania donovani [3])
CCCCc1oc2ccc(/N=C/c3cccc([N+](=O)[O-])c3)cc2c1C(=O)c1ccc(OC)cc1	34.16 µg/mL (≈ 74.8 µM)	103 µg/mL (≈ 226 µM)	
CCCCc1oc2ccc(/N=C/c3ccc(OC)cc3OC)cc2c1C(=O)c1ccc(OC)cc1	20.53 µg/mL (≈ 43.5 µM)	52 µg/mL (≈ 110 µM)	
CCCCc1oc2ccc(/N=C/c3ccccc3)cc2c1C(=O)c1ccc(OC)cc1	34.24 µg/mL (≈ 83.2 µM)	279 µg/mL (≈ 677 µM)	2
CCCCc1oc2ccc(/N=C/c3ccc(OCC)c(OC)c3)cc2c1C(=O)c1ccc(OC)cc1	14.78 µg/mL (≈ 30.4 µM)	238 µg/mL (≈ 491 µM)	
CCCCc1oc2ccc(/N=C/c3ccc(Cl)cc3Cl)cc2c1C(=O)c1ccc(OC)cc1	2.44 µg/mL (≈ 5.08 µM)	124 µg/mL (≈ 258 µM)	
CCCCc1oc2ccc(/N=C/c3ccccc3O)cc2c1C(=O)c1ccc(OC)cc1	99.43 µg/mL (≈ 233 µM)	115 µg/mL (≈ 268 µM)	4
CCCCc1oc2ccc(/N=C/c3ccc(O)cc3O)cc2c1C(=O)c1ccc(OC)cc1	7.55 µg/mL (≈ 17 µM)	109 µg/mL (≈ 246 µM)	4
O=C1O[C@H]([C@@H](O)CO)C(O)=C1O [ASCORBIC ACID]	3.31 µg/mL (≈ 18.8 µM)		
N=C(N)c1ccc(OCCCCCOc2ccc(C(=N)N)cc2)cc1 [PENTAMIDINE]		16.1 µg/mL (≈ 47.4 µM)	

The next lines start with results.

IC50 [2]	SMILES	IC50 (Leishmania donovani [1])	Ratio IC50 (Leishmania donovani [3])
75.86 µg/mL (≈ 170 µM)	CCCCc1oc2ccc(/N=C/c3ccc(Cl)cc3)cc2c1C(=O)c1ccc(OC)cc1	372 µg/mL (≈ 834 µM)	
100.3 µg/mL (≈ 234 µM)	CCCCc1oc2ccc(/N=C/c3ccc(F)cc3)cc2c1C(=O)c1ccc(OC)cc1	77.4 µg/mL (≈ 180 µM)	
22.79 µg/mL (≈ 53.3 µM)	CCCCc1oc2ccc(/N=C/c3ccc(O)cc3)cc2c1C(=O)c1ccc(OC)cc1	144 µg/mL (≈ 337 µM)	4
3.69 µg/mL (≈ 8.39 µM)	CCCCc1oc2ccc(/N=C/c3ccc(CC)cc3)cc2c1C(=O)c1ccc(OC)cc1	59.3 µg/mL (≈ 135 µM)	
27.16 µg/mL (≈ 62.2 µM)	CCCCc1oc2ccc(/N=C/c3ccc(C#N)cc3)cc2c1C(=O)c1ccc(OC)cc1	101 µg/mL (≈ 231 µM)	
53.11 µg/mL (≈ 116 µM)	CCCCc1oc2ccc(/N=C/c3ccc([N+](=O)[O-])cc3)cc2c1C(=O)c1ccc(OC)cc1	56 µg/mL (≈ 123 µM)	
